{"source": "patent US10301288B2", "about": "“Kinase inhibitors” (Topivert Pharma Limited, priority 2013, dated 2019)", "key": {"B-Raf": {"biological_target": "B-Raf (Homo sapiens (Human), UniProt P15056)", "sequence (P15056 whole entry)": "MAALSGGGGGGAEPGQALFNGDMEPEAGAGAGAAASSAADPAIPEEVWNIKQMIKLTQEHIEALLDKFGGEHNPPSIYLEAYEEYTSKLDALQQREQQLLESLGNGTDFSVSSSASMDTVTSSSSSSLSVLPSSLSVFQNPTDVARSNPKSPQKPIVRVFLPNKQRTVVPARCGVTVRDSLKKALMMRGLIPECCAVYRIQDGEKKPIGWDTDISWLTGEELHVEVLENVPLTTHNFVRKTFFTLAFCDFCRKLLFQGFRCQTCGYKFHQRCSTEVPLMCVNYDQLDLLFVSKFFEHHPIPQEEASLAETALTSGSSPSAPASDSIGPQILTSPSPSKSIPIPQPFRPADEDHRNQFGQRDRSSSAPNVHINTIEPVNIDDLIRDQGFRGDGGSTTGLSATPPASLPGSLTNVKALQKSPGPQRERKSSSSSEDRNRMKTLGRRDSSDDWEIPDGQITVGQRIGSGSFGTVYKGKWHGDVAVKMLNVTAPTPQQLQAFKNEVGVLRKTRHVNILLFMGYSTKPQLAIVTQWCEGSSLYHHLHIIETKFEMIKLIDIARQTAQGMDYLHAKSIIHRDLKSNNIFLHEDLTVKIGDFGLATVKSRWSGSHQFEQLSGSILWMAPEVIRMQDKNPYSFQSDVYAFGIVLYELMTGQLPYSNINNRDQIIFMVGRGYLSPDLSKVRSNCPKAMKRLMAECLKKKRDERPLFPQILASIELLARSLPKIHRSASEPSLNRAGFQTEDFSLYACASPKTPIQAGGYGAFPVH", "test": "KINOMEscan enzyme binding assay, B-Raf", "experimental": "Kinase enzyme binding activities of compounds disclosed herein may be determined using a proprietary assay which measures active site-directed competition binding to an immobilized ligand (Fabian, M. A. et al., Nature Biotechnol., 2005, 23:329-336). These assays may be conducted by DiscoverX (formerly Ambit; San Diego, Calif.). The percentage inhibition produced by incubation with a test compound may be calculated relative to the non-inhibited control."}, "Syk": {"biological_target": "Syk (Homo sapiens (Human), UniProt P43405)", "test": "Syk enzyme inhibition (FRET)", "assay_type": "biochemical", "in_short": "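Z-LYTE FRET peptide assay: c-Src (3000 ng/mL) or Syk (2000 ng/mL) preincubated 2 h at room temperature with compound (4–0.004 μg/mL working solutions). Reaction was 1 h with peptide (8 μM solution) and ATP (800 μM c-Src, 60 μM Syk solutions), followed by 1 h protease development. Phosphorylation was read as the coumarin/fluorescein emission ratio.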"}, "primary macrophages": {"system": "primary macrophages", "test": "(e) LPS-induced cytokine release in primary macrophages", "assay_type": "cell-based", "conditions": "Homo sapiens, Primary macrophage, assay (e)", "experimental": "PBMCs from healthy subjects are separated from whole blood using a density gradient (Lymphoprep, Axis-Shield Healthcare). Cells are incubated for 2 hrs and non-adherent cells removed by washing. To differentiate the cells to macrophages the cells are incubated with 5 ng/ml of GM-CSF (Peprotech) for 7 days under normal tissue culture conditions. Compounds are then added to the cells at the desired concentration for a 2 hour pre-treatment before stimulation with 10 ng/ml LPS for 24 hours. […] The IC50 is determined from the dose response curve."}, "PBMCs": {"system": "PBMCs", "test": "(i) Cell mitosis assay in PBMCs", "assay_type": "cell-based", "conditions": "Homo sapiens, PBMC, 5 μg/mL", "experimental": "PBMCs from healthy subjects are separated from whole blood (Quintiles, London, UK) using a density gradient (Histopaque®-1077, Sigma-Aldrich, Poole, UK). The PBMCs (3 million cells per sample) are subsequently treated with 2% PHA (Sigma-Aldrich, Poole, UK) for 48 hr, followed by a 20 hr exposure to varying concentrations of test compounds. At 2 hr before collection, PBMCs are treated with demecolcine (0.1 μg/mL; Invitrogen, Paisley, UK) to arrest cells in metaphase. […] Fluorescence is observed using an ATTUNE flow cytometer (Invitrogen, Paisley, UK), gating for lymphocytes."}, "[1]": {"system": "TNBS-induced colitis in mice", "test": "(C) TNBS-induced colitis in mice", "assay_type": "in vivo, male BDF1 mice", "conditions": "for LP inflammation / Ulcer grade: 2 days", "experimental": "Non-fasted, 10-12 week old, male BDF1 mice are dosed by oral gavage twice daily with either vehicle (5 mL/kg), reference item (Budesonide 2.5 mg/kg) or test compound (1 or 5 mg/kg) one day before (Day −1) stimulation of the inflammatory response by treatment with 2,4,6-trinitrobenzenesulphonic acid (TNBS) (15 mg/mL in 50% ethanol/50% saline). On Day 0 of the study TNBS (200 μL) is administered intra-colonically via a plastic catheter with BID dosing of the vehicle, reference or test compound continuing for 2 or 4 days. During the study animals are weighed every day and stool observations are made and recorded as a score, based on stool consistency. At the time of sacrifice on Day 2 (or Day 4) the large intestine is removed and the length and weight recorded. Sections of the colon are taken for histopathology scoring to determine disease severity."}, "[2]": {"test": "Pharmacokinetics and colon distribution in rats", "assay_type": "in vivo, male Wistar rats", "conditions": "for concentration at 0.5 h: time cell blank (0.5 hr per method)", "experimental": "30 male Wistar rats were divided into two groups: Group I (p.o.: 5 mg/kg) and Group II (i.v.: 0.25 mg/kg). […] From each rat, blood samples (approximately 120 μL) were collected from retro orbital plexus such that samples were obtained at pre-dose, 0.05, 0.13, 0.25, 0.5, 1, 2, 4, 8, and 24 hr (i.v.) and pre-dose, 0.5, 1, 2, 4, 6, 8, 12 and 24 hr (p.o.). Immediately after collection, plasma was harvested from blood by centrifugation and stored at −70° C. until analysis. Following collection of blood sample, the animals (Group I) were humanely euthanized by carbon dioxide asphyxiation. The total colon was isolated, flushed with cold phosphate buffer saline (pH 7.4) to remove contents and weighed. The total colon tissues homogenized with ice-cold phosphate buffered saline, pH 7.4. Buffer volume to be used for homogenization was twice the weight of tissue. All the samples were stored below −70° C. until bioanalysis. Total colon tissue homogenate volume was three times. Plasma and total colon tissue samples were quantified by LC-MS/MS method (LLOQ in plasma and total colon tissue=0.5 ng/mL)."}, "[3]": {"test": "Chemical stability in solid form at 40° C. and 75% relative humidity", "assay_type": "physicochemical", "experimental": "The results of the study are reported in the table below (where chemical purity was assessed using HPLC)."}, "[4]": {"conditions": "male, Wistar, colon, po, rat, 5 mg/kg p.o., read-out: Mean concentration, Colon"}, "[5]": {"conditions": "male, Wistar, plasma, po, rat, 5 mg/kg p.o., read-out: Mean concentration, Plasma"}, "[6]": {"conditions": "male, Wistar, plasma, Rat, 0.25 mg/kg intravenous"}, "[7]": {"conditions": "male, Wistar, po, Rat, 5 mg/kg p.o., Plasma"}, "[8]": {"conditions": "male, Wistar, po, Rat, 5 mg/kg p.o., Total colon"}}, "note": "pIC50: −log10 of the molar value. Where two headings read alike, the source gives them in different places.", "data": [{"compound": "C#Cc1cc(Nc2nccc(Oc3ccc(NC(=O)Nc4cc(C(C)(C)C)nn4-c4ccc(C)cc4)c4ccccc34)n2)cc(C(=O)NCCOCCOCCOC)c1", "note": "[Example 2, 3-((4-((4-(3-(3-(tert-Butyl)-1-(p-tolyl)-1H-pyrazol-5-yl)ureido)naphthalen-1-yl)oxy)pyrimidin-2-yl)amino)-5-ethynyl-N-(2-(2-(2-methoxyethoxy)ethoxy)ethyl)-benzamide]", "values": [{"measurement": "effect on the binding of B-Raf to its standard ligand", "setting": "B-Raf", "value": "did not have any effect"}, {"measurement": "pIC50", "setting": "Syk", "value": 7.30}, {"measurement": "pIC50", "setting": "primary macrophages; read-out: IC50 for inhibition of release of IL-6", "value": 8.55}, {"measurement": "pIC50", "setting": "primary macrophages; read-out: IC50 for inhibition of release of IL-8", "value": 8.68}, {"measurement": "inhibition at 5 µg/mL", "setting": "PBMCs", "value": 18.7, "unit": "%"}, {"measurement": "LP inflammation", "setting": "[1]; 1 mg/kg oral BID", "value": "2.9 ± 0.3"}, {"measurement": "Ulcer grade", "setting": "[1]; 1 mg/kg oral BID", "value": "3.5 ± 0.4"}, {"measurement": "LP inflammation", "setting": "[1]; 5 mg/kg oral BID", "value": "2.2 ± 0.4"}, {"measurement": "Ulcer grade", "setting": "[1]; 5 mg/kg oral BID", "value": "3.0 ± 0.5"}, {"measurement": "ulcer grade and epithelial repair compared to the vehicle control (histopathology)", "setting": "[1]; dosed orally at 5 mg/kg", "value": "marked improvements in ulcer grade and epithelial repair"}, {"measurement": "inflammatory cell infiltrate in the reticular and lamina propria zones (histopathology)", "setting": "[1]; oral dosing", "value": "marked reduction"}, {"measurement": "Fpo", "setting": "[2]; Rat, 5 mg/kg p.o., Plasma", "value": 0.04, "unit": "%"}, {"measurement": "concentration at 1 h", "setting": "[2]; [4]", "value": 1.9, "unit": "ng/g"}, {"measurement": "concentration at 2 h", "setting": "[2]; [4]", "value": 4, "unit": "ng/g"}, {"measurement": "concentration at 4 h", "setting": "[2]; [4]", "value": 339, "unit": "ng/g"}, {"measurement": "concentration at 6 h", "setting": "[2]; [4]", "value": 1860, "unit": "ng/g"}, {"measurement": "concentration at 8 h", "setting": "[2]; [4]", "value": 2000, "unit": "ng/g"}, {"measurement": "concentration at 12 h", "setting": "[2]; [4]", "value": 597, "unit": "ng/g"}, {"measurement": "concentration at 24 h", "setting": "[2]; [4]", "value": 53.9, "unit": "ng/g"}, {"measurement": "concentration at 0.5 h", "setting": "[2]; [4]", "value": 3.3, "unit": "ng/g"}, {"measurement": "concentration at 1 h", "setting": "[2]; [5]", "value": 0.9, "unit": "ng/mL"}, {"measurement": "concentration at 2 h", "setting": "[2]; [5]", "value": 0.6, "unit": "ng/mL"}, {"measurement": "concentration at 4 h", "setting": "[2]; [5]", "value": 2.7, "unit": "ng/mL"}, {"measurement": "concentration at 6 h", "setting": "[2]; [5]", "value": 1.7, "unit": "ng/mL"}, {"measurement": "concentration at 8 h", "setting": "[2]; [5]", "value": 0.6, "unit": "ng/mL"}, {"measurement": "concentration at 12 h", "setting": "[2]; [5]", "value": 0.7, "unit": "ng/mL"}, {"measurement": "concentration at 24 h", "setting": "[2]; [5]", "value": 1.8, "unit": "ng/mL"}, {"measurement": "concentration at 0.5 h", "setting": "[2]; [5]", "value": 0.8, "unit": "ng/mL"}, {"measurement": "AUC(0-inf)", "setting": "[2]; [6]", "value": 691, "unit": "ng·h/mL"}, {"measurement": "AUC(0-t)", "setting": "[2]; [6]", "value": 682, "unit": "ng·h/mL"}, {"measurement": "C0", "setting": "[2]; [6]", "value": 5360, "unit": "ng/mL"}, {"measurement": "Vd", "setting": "[2]; [6]", "value": 0.3, "unit": "L/kg"}, {"measurement": "clearance", "setting": "[2]; [6]", "value": 6.3, "unit": "mL/min/kg"}, {"measurement": "half-life", "setting": "[2]; [6]", "value": 2.2, "unit": "h"}, {"measurement": "AUC(0-t)", "setting": "[2]; [7]", "value": 4.8, "unit": "ng·h/mL"}, {"measurement": "Cmax", "setting": "[2]; [7]", "value": 2.7, "unit": "ng/mL"}, {"measurement": "Tmax", "setting": "[2]; [7]", "value": 4, "unit": "h"}, {"measurement": "AUC(0-inf)", "setting": "[2]; [8]", "value": 15800, "unit": "ng·h/mL"}, {"measurement": "AUC(0-t)", "setting": "[2]; [8]", "value": 15500, "unit": "ng·h/mL"}, {"measurement": "Cmax", "setting": "[2]; [8]", "value": 2000, "unit": "ng/mL"}, {"measurement": "Tmax", "setting": "[2]; [8]", "value": 8, "unit": "h"}, {"measurement": "Mean concentration, Colon", "setting": "[2]; rat, 5 mg/kg p.o., Pre-dose", "value": 0.0, "unit": "ng/g"}, {"measurement": "Mean concentration, Plasma", "setting": "[2]; rat, 5 mg/kg p.o., Pre-dose", "value": 0.0, "unit": "ng/mL"}, {"measurement": "chemical purity (HPLC), solid form", "setting": "[3]; 0 months", "value": 98.52, "unit": "%"}, {"measurement": "chemical purity (HPLC), solid form", "setting": "[3]; 1 month, 40° C./75% RH", "value": 96.88, "unit": "%"}, {"measurement": "chemical purity (HPLC), solid form", "setting": "[3]; 3 months, 40° C./75% RH", "value": 94.32, "unit": "%"}]}]}
